{"source": "paper PMC6934184", "about": "“Selective DNA-PKcs inhibition extends the therapeutic index of localized radiotherapy and chemotherapy” (The Journal of Clinical Investigation, 2019)", "target": "T1, EPHA1 (Homo sapiens, UniProt P21709)", "T1 construct": "purchased Thermo Fisher Scientific (Life Technologies) SelectScreen", "T1 sequence (P21709 26-976)": "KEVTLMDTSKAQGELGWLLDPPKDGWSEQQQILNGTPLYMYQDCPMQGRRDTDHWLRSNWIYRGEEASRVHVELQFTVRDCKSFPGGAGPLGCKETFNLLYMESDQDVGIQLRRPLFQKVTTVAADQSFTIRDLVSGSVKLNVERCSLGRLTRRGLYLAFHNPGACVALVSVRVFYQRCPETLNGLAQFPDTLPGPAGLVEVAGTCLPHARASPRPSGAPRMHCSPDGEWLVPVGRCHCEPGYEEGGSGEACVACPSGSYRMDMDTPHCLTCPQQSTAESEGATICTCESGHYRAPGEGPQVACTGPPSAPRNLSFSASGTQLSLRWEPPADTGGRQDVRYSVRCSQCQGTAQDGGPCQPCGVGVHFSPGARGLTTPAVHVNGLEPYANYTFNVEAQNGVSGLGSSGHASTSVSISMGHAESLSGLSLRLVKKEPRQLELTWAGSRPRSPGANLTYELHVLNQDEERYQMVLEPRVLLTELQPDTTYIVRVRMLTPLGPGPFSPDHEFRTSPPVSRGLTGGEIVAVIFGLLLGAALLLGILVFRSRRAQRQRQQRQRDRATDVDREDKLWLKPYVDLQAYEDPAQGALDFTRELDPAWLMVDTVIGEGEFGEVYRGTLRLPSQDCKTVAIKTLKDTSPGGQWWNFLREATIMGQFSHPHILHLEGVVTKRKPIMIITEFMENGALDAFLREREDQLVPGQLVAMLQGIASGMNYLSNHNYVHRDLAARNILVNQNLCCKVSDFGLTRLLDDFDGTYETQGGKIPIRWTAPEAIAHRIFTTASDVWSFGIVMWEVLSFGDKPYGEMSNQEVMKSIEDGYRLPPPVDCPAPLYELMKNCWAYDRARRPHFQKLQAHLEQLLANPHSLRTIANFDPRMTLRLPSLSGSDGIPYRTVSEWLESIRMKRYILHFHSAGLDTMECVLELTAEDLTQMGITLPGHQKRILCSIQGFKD", "experiment": "SelectScreen Z'LYTE", "format": "biochemical", "in_short": "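NU5455 was profiled across the SelectScreen Broad panel of kinase activity and binding assays. Z'LYTE reactions such as CSF1R ran at apparent Km ATP, while the Adapta CAMK1 assay used ATP listed as 10. Values are given as percent.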", "data": [{"smiles": "CN(C(=O)CN1CCOCC1)c1ccc2sc3c(-c4cccc5c(=O)cc(N6CC7CCC(C6)O7)oc45)cccc3c2c1", "note": "[NU5455]", "values": [{"measurement": "inhibition at 1 µM", "value": 2.7, "unit": "%"}]}]}
